From patent US8507756B2, “Plant protection” (Plant Bioscience Limited, priority 2007, dated 2013)

Experiments:
Format in all cases: in vivo
[1] = system: Tetranychus urticae (two-spotted spider mite); experiment: JA seed treatment, tomato plants challenged with two-spotted spider mite; conditions: tomato cv. Carousel
Procedure: (§1) Tomato, pepper, maize and wheat seeds were treated with 3 mM JA or 1.5 mM JA solutions or with 3 mM methyl jasmonate (MeJA) or with deionised water containing 42.8 mM ethanol (control) by full submersion of up to 40 seeds in a Petri dish of solution wrapped in foil for a period of 24 hours at 4° C. in a fridge. A temperature of 4° C. was used both to prevent degradation of the jasmonic acid solutions and to prevent germination of the seeds.
The seeds were then removed from the treatment solution and washed in 1 liter of deionised water for 5 minutes to remove the JA or MeJA coating the outside of the seeds.
Tomato seeds were sown in rockwool blocks and grown on peat-based compost in glass houses at 12° C.-28° C. under artificial light on a 16 hour light and 8 hour dark cycle for 48, 56 or 70 days.
Tomato plants were then challenged with Tetranychus urticae (two-spotted spider mite) which were allowed to feed for 9 days, Manduca sexta (tobacco hornworm) caterpillars which were allowed to feed for 4 days or Myzus persicae (aphid), which were allowed to feed for 10 or 12 days. In each case these organisms were restricted to the plant on which they had originally been placed. Pepper plants were challenged with Myzus persicae (aphid), which were allowed to feed for 2 weeks. Maize and wheat plants were challenged with Spodoptera exempta caterpillars which were allowed to feed for 2 days (maize) or 3 days (wheat).
The effect of Tetranychus urticae on plants was measured by means of counting the number of live and dead mites on each plant and the number of mite eggs present using a dissecting microscope.
Seeds of a UK commercial F1 hybrid tomato variety (cv. Carousel) were treated with either 1.5 or 3.0 mM jasmonic acid (JA) and 42.8 mM ethanol in deionised H2O for a period of 24 hours at 4° C. in the dark. Those seeds were then removed from solution and washed in deionised H2O only to remove the JA coating the outside of the seed. Those seed were then germinated in a commercial manner using rockwool blocks and were grown on under glasshouse conditions appropriate to this crop. Plants were challenged with two-spotted spider mite (Tetranychus urticae) 7 weeks after treatment a common crop pest, acting here as a “model herbivore”.

[2] = system: Spodoptera exempta; experiment: JA seed treatment, maize plants challenged with Spodoptera exempta caterpillars; conditions: maize cv. Earligold, seed treatment 1.5 mM JA, 2 days feeding
Procedure: as §1
(§2) Wheat and maize seeds were sown in peat-based compost and grown in unheated glass houses with supplementary lighting. (600 W SON-T lamps, for 16 hours per day) in the autumn.
(§3) Tomato plants were then challenged with Tetranychus urticae (two-spotted spider mite) which were allowed to feed for 9 days, Manduca sexta (tobacco hornworm) caterpillars which were allowed to feed for 4 days or Myzus persicae (aphid), which were allowed to feed for 10 or 12 days. […]
(§4) The effect of Manduca sexta or Spodoptera exempta on plants was determined by measurement of the leaf area eaten, measured using a leaf area meter.
Seeds of maize cv. […] Caterpillars were allowed to feed on the plants for 2 days and the area of grazed leaves was then measured. […] When expressed as the area of leaf consumed per unit weight of caterpillars the reduction in plants grown from seed treated with JA was even more pronounced (40%, p<0.001, FIG. 9). […]

[3] = system: Spodoptera exempta; experiment: JA seed treatment, wheat plants challenged with Spodoptera exempta caterpillars; conditions: wheat cv. Einstein; seed treatment 1.5 mM JA; challenged 7 weeks after seed treatment; 3 days feeding; p<0.01
Procedure: as §1, §2, §3, §4
Seeds of the commercial wheat variety (cv. Einstein) were treated with 1.5 mM jasmonic acid (JA), and plants grown in the glasshouse (as described under Example 1). […] Caterpillars were allowed to feed on the plants for 3 days and the area of grazed leaves was then measured. […]

`CC/C=C\C[C@H]1C(=O)CC[C@@H]1CC(=O)O` [JA, jasmonic acid] was tested, and the “Observed resistance induced against spider mite” value ([1]; 8 weeks after application of the JA to the seeds) was “significant”, the “Visual damage caused by red spider mite attack (pale stippling of the leaf surface)” value ([1]; seed treatment 3.0 mM JA vs control, challenged 7 weeks after treatment) was “substantially reduced” and the “Reproductive rate of the mite measured by egg production (eggs per adult female) compared with control plants” value ([1]; seed treatment 1.5 or 3.0 mM JA, 10 replicates) was “significant reduction”. The “Population of two-spotted spider mite on the leaves (number of live mites) compared with control plants” value ([1]; seed treatment 1.5 or 3.0 mM JA, mites fed 9 days, 10 replicates) was “significant reduction”, the “Area of leaf consumed per unit weight of caterpillars, reduction vs controls” value ([2]; p<0.001) was 40% and the “Leaf area consumed by caterpillars, lower than controls” value ([2]; tassel stage approx. 10 weeks after seed treatment, p<0.05) was 38%. For the same molecule, the “Leaf area consumed by caterpillars, lower than controls” value [3] was 60%.
